Assay: Photostability under continuous 808 nm laser illumination
Type: physicochemical
Conditions: same conditions as CHS2; 808 nm laser illumination (82 mW cm^-2) for 1 h
Protocol: Fig. 2 (a) Fluorescence emission of CHS2 under 808 nm excitation; (b) photostability of CHS2 in water, PBS and serum under 808 nm laser illumination (105 mW cm^–2) for 1 h; (c) photostability of ICG vs.CHS2 under 808 nm laser illumination (82 mW cm^–2) for 1 h; (d) cellular toxicity of different concentrations of CHS2 in U87MG cell lines.

SMILES: CC1(C)C(/C=C/C=C/C=C/C=C2\N(CCCCS(=O)(=O)O)c3ccc4ccccc4c3C2(C)C)=[N+](CCCCS(=O)(=O)[O-])c2ccc3ccccc3c21 [ICG, indocyanine green]
- photostability (fluorescence decay): ~50%
